# Columns and labels:
# sC5b-9 complex = assay: Measurement of fluid-phase SC5b-9 complex formation in the serum; format: biochemical, human
# Experimental: The MicroVue SC5b-9 EIA kit was used to measure activation of the classical and alternative pathways of complement according to the vendor's instruction (Quidel Corp., San Diego, Calif.). Briefly, the serum, untreated or treated was mixed with PBS, Ab-sensitized sheep RBC (SRBC), or 20 units of CVF and added to plate wells pre-coated with anti-sC5b-9 monoclonal antibody. The plate was incubated at 37° C. for 60 minutes, followed by five washes with the provided wash buffer. The plate was then incubated with the provided SC5b-9 Plus Conjugate, which contained horseradish peroxidase-conjugated Ab specific for sC5b-9 at room temperature for 30 minutes. The plate was washed five times, incubated with the substrate for 15 minutes at room temperature to initiate the enzymatic reaction and subsequently quenched with the stop solution. OD450 Was measured using the spectrophotometer SpectraMAX 250. The concentration of fluid phase sC5b-9 present in the samples was determined from the standard curve generated with the provided sC5b-9 standards.
# human neutrophils [1] = assay: iC3b staining on PGG β-glucan-bound neutrophils (flow cytometry, confocal microscopy); format: cell-based
# Experimental: Binding of PGG β-glucan to neutrophils and PBMC was done as above. iC3b deposition on these cells was detected by staining with a neo-epitope specific anti-iC3b Ab and PE-conjugated goat anti-mouse IgG and analyzing by flow cytometry.
# Enriched neutrophils, resuspended at 1×10^6 cells/mL in either RPMI supplemented with 20% serum or heat-inactivated serum, were mixed with PGG β-glucan before being applied to a 10 mm glass cover slip placed in the well of a 24-well plate. The plate was incubated in a 37° C., humidified 5% CO2 incubator for one hour. Unbound cells and PGG β-glucan were removed by washing with warmed PBS, and bound cells were subsequently fixed in 1% formaldehyde at room temp for 15 minutes. Cells were blocked with FCR blocking agent prior to staining with BFD IV and anti-iC3b monoclonal antibody for 30 minutes at 4° C., and followed by the secondary staining antibodies Cy5-conjugated goat anti-mouse IgM and Cy3-conjugated goat anti-mouse IgG at 4° C. for 30 minutes. Cells were penneabilized with 0.1% ice-cold TritonX-100 for three minutes on ice, stained with DAPI on ice for five minutes before mounting onto slides. Images were analyzed and acquired with Olympus FluoView 1000 IX2 Inverted confocal microscope. Images were adjusted equally in Adobe Photoshop (Adobe Systems Inc., San Jose, Calif.).
# iC3b = biological target: T1, iC3b (Homo sapiens, UniProt P01024); assay: Immunoprecipitation of PGG β-glucan with BfD IV and detection of pulled-down iC3b; format: binding
# T1 construct: from tissue
# T1 sequence (P01024 749-1303 limits assumed): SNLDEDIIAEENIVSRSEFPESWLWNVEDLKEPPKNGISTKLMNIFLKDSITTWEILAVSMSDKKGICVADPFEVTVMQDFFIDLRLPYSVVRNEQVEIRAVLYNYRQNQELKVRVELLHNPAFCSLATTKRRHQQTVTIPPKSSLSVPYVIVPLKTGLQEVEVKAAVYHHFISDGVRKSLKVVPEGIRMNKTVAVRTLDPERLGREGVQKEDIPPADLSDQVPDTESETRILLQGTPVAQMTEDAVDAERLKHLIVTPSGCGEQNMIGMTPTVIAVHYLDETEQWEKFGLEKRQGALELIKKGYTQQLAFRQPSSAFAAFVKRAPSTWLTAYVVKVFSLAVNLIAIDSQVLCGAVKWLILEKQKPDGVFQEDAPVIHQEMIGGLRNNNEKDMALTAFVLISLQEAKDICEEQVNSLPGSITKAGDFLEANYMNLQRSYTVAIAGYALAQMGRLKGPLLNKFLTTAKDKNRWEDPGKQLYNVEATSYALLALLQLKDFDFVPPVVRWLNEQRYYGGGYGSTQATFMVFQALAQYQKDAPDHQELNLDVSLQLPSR
# T1 sequence (P01024 23-667 partner limits assumed): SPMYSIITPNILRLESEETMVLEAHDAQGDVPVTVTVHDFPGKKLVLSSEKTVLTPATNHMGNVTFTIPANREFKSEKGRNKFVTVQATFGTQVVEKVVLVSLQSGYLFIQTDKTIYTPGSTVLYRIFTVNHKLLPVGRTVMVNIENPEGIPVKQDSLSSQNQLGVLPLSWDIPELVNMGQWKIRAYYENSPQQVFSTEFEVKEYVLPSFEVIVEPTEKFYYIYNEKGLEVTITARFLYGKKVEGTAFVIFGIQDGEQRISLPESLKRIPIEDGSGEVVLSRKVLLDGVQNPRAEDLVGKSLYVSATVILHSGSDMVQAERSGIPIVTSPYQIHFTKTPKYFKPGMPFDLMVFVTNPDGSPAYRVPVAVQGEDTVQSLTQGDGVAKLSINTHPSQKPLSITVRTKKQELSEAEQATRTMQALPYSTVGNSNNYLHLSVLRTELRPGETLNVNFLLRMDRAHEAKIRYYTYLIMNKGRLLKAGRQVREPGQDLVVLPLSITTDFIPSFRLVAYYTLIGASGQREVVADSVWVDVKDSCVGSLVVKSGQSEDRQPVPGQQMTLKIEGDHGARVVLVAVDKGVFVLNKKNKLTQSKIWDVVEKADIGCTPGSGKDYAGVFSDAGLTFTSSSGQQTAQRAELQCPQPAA
# T1 sequence (P01024 1321-1663 partner limits assumed): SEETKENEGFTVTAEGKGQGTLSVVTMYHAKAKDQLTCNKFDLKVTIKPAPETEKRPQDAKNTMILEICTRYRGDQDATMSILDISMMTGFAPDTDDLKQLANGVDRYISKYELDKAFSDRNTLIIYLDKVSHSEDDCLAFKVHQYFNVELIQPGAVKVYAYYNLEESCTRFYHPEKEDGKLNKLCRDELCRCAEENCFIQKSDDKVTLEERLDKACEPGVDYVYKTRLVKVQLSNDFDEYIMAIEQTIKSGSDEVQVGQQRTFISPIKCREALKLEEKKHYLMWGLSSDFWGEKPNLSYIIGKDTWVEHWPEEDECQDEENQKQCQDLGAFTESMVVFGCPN
# Experimental: PGG β-glucan or dextran at concentration 60-80 mg/mL was incubated with regular or HI serum at 1:10 volume ratio for 30 minutes in a 37° C. water bath. BfD IV Ab was added to the serum/β-glucan mixture and incubated at room temperature for additional 30 minutes. Magnetic beads conjugated with rat anti-mouse IgM (DYNABEADS, Invitrogen, Camarillo, Calif.) were washed three times with DPBS and incubated with serum-PGG β-glucan-BfD IV mixture for another 30 minutes at room temperature. The beads were separated magnetically and iC3b pulled-down along with immunoprecipitated PGG was probed using FITC-conjugated complement C3 Ab by flow cytometer.
# human neutrophils [2] = assay: Binding of PGG β-glucan after serum pre-treatment, neutrophils; format: cell-based; details: 200 μg/mL; 10% HI serum; two hours at 37° C.
# Experimental: PGG β-glucan at concentration 60-80 mg/mL was incubated with human serum at 1:10 volume ratio for 30 minutes in a 37° C. water bath. The serum-pretreated PGG β-glucan was added to neutrophils at 200 μg/mL or to PBMC at 100 μg/mL resuspended in RPM1 containing either 10% regular autologous serum or 10% HI serum at indicated time and temperature of incubation. Binding was then determined as described previously.
# To determine the role of complement proteins in binding, experiments were performed as described above except for using serum containing 10% HI, compstatin-treated or methylamine (MA)-treated, EGTA- or EGTA+MgCl2 (MgEGTA)-treated, or factor D-blocked serum. Heat-inactivated (HI) serum was prepared by incubating serum in a 56° C. water bath for 30 minutes. […] Treatment of serum with methylamine (MA) was done by incubating serum with 0.67% of methylamine for 2.5 hours at 37° C., followed by three washes with DPBS using Amicon centrifugal filter unit with a 3K MW cut-off (Millipore, Billerica, Mass.). DPBS-treated serum was prepared in the same manner and used as control serum for MA-treated serum. For blocking of factor D in the serum, 166-32 at concentration 20 μg/mL was incubated with serum on ice for 30 minutes, and then used for binding studies. […]
# human monocytes = assay: Binding of PGG β-glucan to human monocytes within PBMC (BfD IV staining, flow cytometry); format: cell-based
# Experimental: Enriched neutrophils or PBMC were resuspended at 1×10^6 cells/mL in RPMI 1640 supplemented with 10% serum. PGG β-glucan at hexose concentrations 100 μg/mL, 200 μg/mL, or 400 μg/mL were added to neutrophils or PBMC and incubated in a 37° C., 5% CO2 humidified incubator for two hours. After incubation, cells were washed twice with FACS buffer (HBSS supplemented with 1% FBS and 0.1% sodium azide) to remove any unbound β-glucan, and subsequently treated with Fc block (Miltenyi Biotec, Auburn, Calif.). […] Cells were then incubated with FITC-conjugated F(ab′)2 goat anti-mouse IgM for 30 minutes at 4° C. and washed once with cold FACS buffer before fixing with 1% paraformaldehyde. In early optimization experiments, neutrophils, monocytes, and T cells were identified by staining with fluorescently labeled anti-CD 15, anti-CD 14, or anti-CD3 Abs, respectively. Events were collected on a LSRII flow cytometer (BD Biosciences, San Jose, Calif.) and analysis was performed using FLOWJO (Tree Star, Ashland, Oreg.). […] Surface binding of DTAF-conjugated β-glucan was subsequently assessed by flow cytometric analysis. […] The experiments to determine binding of PGG β-glucan at 200 μg/mL to neutrophils or at 100 μg/mL to PBMC were performed as described above with the following changes. For determining serum dependency, PGG β-glucan was incubated with neutrophils or PBMC resuspended in RPMI 1640 containing 2%, 5%, or 10% autologous serum at 37° C. for two hours. For time-course experiments, PGG β-glucan at indicated concentrations was incubated with cells resuspended in 10% autologous serum at 37° C. for 10 minutes, 20 minutes, 60 minutes, or 120 minutes. For temperature dependency experiments, PGG β-glucan at indicated concentrations was incubated with cells resuspended in 10% autologous serum for two hours at 4° C., room temperature, or 37° C.
# [3] = 2%, 5% or 10% autologous serum, 37° C., two hours
substance,measurement,setting,value
"β(1,6)-[poly-1,3)-D-glucopyranosyl]-poly-β(1,3)-D-glucopyranose [PGG β-glucan]",Formation of terminal complement complexes (fluid phase MAC) in serum treated with the glucan,sC5b-9 complex,did not activate formation of terminal complement complexes
same,iC3b staining on cells incubated with β-glucan vs serum alone,"human neutrophils [1]; 200 μg/mL, 10% serum, 37° C., two hours",increased staining of iC3b
same,Co-localization of bound glucan and iC3b (confocal microscopy),human neutrophils [1]; BfD IV and anti-iC3b double staining,co-localized
same,iC3b pulled down with BfD IV immunoprecipitate,iC3b; glucan incubated with HI serum,no iC3b was detected
same,iC3b pulled down with BfD IV immunoprecipitate,iC3b; glucan incubated with regular serum,iC3b protein was pulled-down
same,"Extent of rescued binding to cells in HI serum (MFI, percentage of BfD IV positive cells)",human neutrophils [2],minimal
same,Minimum concentration of β-glucan detected on the cells by the BfD IV detection system,human monocytes,100 µg/mL
same,Incubation time of maximal binding,"human monocytes; 100 μg/mL, 10% serum, 37° C.",60 to 120 min
same,Percentage of serum at which maximal binding occurred,human monocytes; [3],10%
same,Percentage of serum at which minimum binding occurred,human monocytes; [3],2%
same,Concentration at which percentage of BfD IV positive cells reached a plateau,"human monocytes; 10% autologous serum, 37° C., two hours",200 µg/mL
same,Binding (MFI and percentage of BfD IV positive cells),"human monocytes; 100, 200, 400 μg/mL, 10% autologous serum, 37° C., two hours",bound to both neutrophils and monocytes
same,Incubation temperature of maximal binding,"human monocytes; two hours at 4° C., room temperature or 37° C., 10% serum",37 °C

# — patent US10092657B2, “Opsonized β-glucan preparations and methods” (Biothera, Inc., priority 2011, dated 2018)
